Measured values reported in patent publication US8841337B2, “Compounds useful as inhibitors of ATR kinase” (Vertex Pharmaceuticals Incorporated, priority 2011, dated 2014).

Target: T1, full-length ATR (Homo sapiens, UniProt Q13535)
T1 construct: Assays were carried out at 25° C. in the presence of 5 nM full-length ATR
Assay: ATR Inhibition Assay (radioactive-phosphate incorporation)
Format: biochemical
Details: Ki(app); 5 nM full-length ATR, 10 μM [γ-33P]ATP, 800 μM target peptide, 25° C.
Protocol: Compounds were screened for their ability to inhibit ATR kinase using a radioactive-phosphate incorporation assay. Assays were carried out in a mixture of 50 mM Tris/HCl (pH 7.5), 10 mM MgCl2 and 1 mM DTT. Final substrate concentrations were 10 μM [γ-33P]ATP (3 mCi 33P ATP/mmol ATP, Perkin Elmer) and 800 μM target peptide (ASELPASQPQPFSAKKK).
Assays were carried out at 25° C. in the presence of 5 nM full-length ATR. An assay stock buffer solution was prepared containing all of the reagents listed above, with the exception of ATP and the test compound of interest. 13.5 μL of the stock solution was placed in a 96 well plate followed by addition of 2 μL of DMSO stock containing serial dilutions of the test compound (typically starting from a final concentration of 15 μM with 3-fold serial dilutions) in duplicate (final DMSO concentration 7%). The plate was pre-incubated for 10 minutes at 25° C. and the reaction initiated by addition of 15 μL [γ-33P]ATP (final concentration 10 μM).
The reaction was stopped after […] by the addition of 30 μL 0.1M phosphoric acid containing 2 mM ATP. […]
After removing mean background values for all of the data points, Ki(app) data were calculated from non-linear regression analysis of the initial rate data using the Prism software package (GraphPad Prism version 3.0cx for Macintosh, GraphPad Software, San Diego Calif., USA).

T1 sequence (Q13535 whole entry): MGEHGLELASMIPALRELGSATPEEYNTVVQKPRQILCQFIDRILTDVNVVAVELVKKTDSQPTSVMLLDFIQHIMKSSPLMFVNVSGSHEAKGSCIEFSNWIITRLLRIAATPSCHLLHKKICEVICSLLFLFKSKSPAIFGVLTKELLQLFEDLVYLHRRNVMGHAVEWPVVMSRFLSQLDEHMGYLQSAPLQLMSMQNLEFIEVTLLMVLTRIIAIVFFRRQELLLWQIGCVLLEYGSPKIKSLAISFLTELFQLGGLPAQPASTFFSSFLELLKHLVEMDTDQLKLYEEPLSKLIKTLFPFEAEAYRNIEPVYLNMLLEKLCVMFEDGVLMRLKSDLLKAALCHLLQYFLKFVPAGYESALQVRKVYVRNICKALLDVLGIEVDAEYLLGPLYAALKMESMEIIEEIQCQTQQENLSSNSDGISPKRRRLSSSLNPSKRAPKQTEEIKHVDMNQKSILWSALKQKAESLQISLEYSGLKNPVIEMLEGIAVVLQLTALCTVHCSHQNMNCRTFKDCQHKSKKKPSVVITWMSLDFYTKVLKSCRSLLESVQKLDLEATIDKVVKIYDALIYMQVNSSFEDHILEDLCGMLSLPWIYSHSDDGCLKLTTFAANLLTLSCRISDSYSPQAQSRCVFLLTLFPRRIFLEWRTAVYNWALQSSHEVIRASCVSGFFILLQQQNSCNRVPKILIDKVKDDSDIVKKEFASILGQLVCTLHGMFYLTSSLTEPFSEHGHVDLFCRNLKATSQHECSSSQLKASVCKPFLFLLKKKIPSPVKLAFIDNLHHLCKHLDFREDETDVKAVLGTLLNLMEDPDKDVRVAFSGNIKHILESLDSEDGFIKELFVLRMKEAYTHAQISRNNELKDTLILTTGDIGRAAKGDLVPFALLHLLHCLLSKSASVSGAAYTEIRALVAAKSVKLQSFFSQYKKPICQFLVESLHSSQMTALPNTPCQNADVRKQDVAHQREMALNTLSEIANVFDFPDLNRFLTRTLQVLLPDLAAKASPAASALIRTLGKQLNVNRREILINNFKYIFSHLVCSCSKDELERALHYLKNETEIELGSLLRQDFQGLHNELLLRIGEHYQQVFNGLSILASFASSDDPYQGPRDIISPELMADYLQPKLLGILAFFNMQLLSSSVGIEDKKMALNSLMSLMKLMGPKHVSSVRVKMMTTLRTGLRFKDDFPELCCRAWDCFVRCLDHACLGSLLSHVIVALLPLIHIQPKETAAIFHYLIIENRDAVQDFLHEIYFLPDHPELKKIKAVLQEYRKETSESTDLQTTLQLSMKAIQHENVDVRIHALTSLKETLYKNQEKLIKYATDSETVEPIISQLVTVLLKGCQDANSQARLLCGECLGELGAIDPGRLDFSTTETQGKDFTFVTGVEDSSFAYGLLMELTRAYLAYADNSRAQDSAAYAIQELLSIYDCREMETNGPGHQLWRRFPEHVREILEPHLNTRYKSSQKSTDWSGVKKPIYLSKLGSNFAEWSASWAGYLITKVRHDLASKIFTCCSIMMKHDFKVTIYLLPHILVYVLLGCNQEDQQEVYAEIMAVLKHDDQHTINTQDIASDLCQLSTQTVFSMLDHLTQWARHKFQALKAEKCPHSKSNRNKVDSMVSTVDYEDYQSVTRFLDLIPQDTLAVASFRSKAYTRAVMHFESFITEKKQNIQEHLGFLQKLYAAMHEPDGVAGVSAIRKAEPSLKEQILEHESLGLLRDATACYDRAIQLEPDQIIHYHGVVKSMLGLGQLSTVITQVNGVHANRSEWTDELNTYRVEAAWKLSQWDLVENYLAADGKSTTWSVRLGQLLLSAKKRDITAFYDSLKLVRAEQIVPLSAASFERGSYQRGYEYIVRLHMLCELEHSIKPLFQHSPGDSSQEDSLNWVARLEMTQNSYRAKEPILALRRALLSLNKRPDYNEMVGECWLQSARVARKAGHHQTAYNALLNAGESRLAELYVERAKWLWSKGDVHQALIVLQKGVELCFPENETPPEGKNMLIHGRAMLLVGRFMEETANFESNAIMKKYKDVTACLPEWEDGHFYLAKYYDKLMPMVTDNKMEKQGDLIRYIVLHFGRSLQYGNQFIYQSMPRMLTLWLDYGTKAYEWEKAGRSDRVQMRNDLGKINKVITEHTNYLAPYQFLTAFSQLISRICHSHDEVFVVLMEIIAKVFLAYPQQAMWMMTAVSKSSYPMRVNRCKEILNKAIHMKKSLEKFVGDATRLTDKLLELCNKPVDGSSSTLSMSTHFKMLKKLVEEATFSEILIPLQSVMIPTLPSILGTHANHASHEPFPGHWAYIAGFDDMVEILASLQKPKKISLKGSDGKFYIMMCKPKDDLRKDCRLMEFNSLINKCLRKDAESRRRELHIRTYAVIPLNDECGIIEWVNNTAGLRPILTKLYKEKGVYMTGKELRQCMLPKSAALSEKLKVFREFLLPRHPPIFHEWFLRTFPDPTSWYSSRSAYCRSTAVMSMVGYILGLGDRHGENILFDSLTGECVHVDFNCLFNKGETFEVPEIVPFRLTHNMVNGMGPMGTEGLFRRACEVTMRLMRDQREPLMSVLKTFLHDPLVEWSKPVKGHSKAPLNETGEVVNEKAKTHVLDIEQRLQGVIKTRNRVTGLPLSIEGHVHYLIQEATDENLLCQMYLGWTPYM

Row | Ki | Structure (SMILES)
1 | 2.86 nM | CC(C)S(=O)(=O)c1ccc(-c2cnc(N)c(-c3cc(-c4ccccc4)[nH]n3)n2)cc1 [Compound I-1, 5-(4-(isopropylsulfonyl)phenyl)-3-(5-phenyl-1H-pyrazol-3-yl)pyrazin-2-amine]
2 | 4.03 nM | CC(C)S(=O)(=O)c1ccc(-c2cnc(N)c(-c3ncc(-c4ccccc4)o3)n2)cc1 [Compound I-2, 5-(4-(isopropylsulfonyl)phenyl)-3-(5-phenyloxazol-2-yl)pyrazin-2-amine]
